Patent US5118687A, “1-oxa-2-oxo-8-azaspiro(4,5)decane derivatives, pharmaceutical compositions containing them and process for preparing same” (Richter Gedeon Vegyeszeti Gyar Rt., priority 1989, dated 1992)
pIC50: −log10 of the molar value. Where a name gives a salt, the structure may show the parent alone.

What was measured:
[1] = system: rat brain synaptosomal preparation; experiment: Calcium uptake-inhibiting action: inhibition of potassium-stimulated 45Ca uptake in a rat brain synaptosomal preparation; assay type: biochemical, rat (Wistar); conditions: rat brain cortex synaptosomes; 60 mM potassium chloride stimulation; 34° C.; incubation 20 seconds; pH 7.4; read-out: IC50 (50% inhibition of the stimulated 45Ca uptake)
Source text: The calcium uptake-inhibiting action of the novel compounds of formula (I) was studied on a rat brain synaptosomal preparation by using the method of P. H. Wu et al. [J. Neurochem. 39, 700 (1982)].
Wistar rats weighting 180 to 200 g were decapitated, their brains were collected in an ice-cold physiological saline solution, the cortex was removed and purified from the white substance. The tissue was homogenized in 10 volumes of 0.32M sucrose solution by using a glass-teflon potter. After centrifuging the homogenate at a rate of 1000×g at 4° C. for 10 minutes, the supernatant was further centrifuged at 10000×g for 20 minutes. The sediment was taken up in a 0.32M sucrose solution in such a way that the protein content of the preparation was adjusted to 20 mg/ml.
The medium (containing 112 mM of sodium chloride, 5 mM of potassium chloride, 1.3 mM of magnesium chloride, 1.2 mM of sodium dihydrogen phosphate, 1.2 mM of calcium chloride, 10 mM of glucose, 20 mM of IRIS buffer) used for the incubation was saturated with carbogen, consisting of 95% by volume of oxygen and 5% by volume of carbon dioxide, up to a pH of 7.4. After adding the test substances to the medium, the synaptosomal preparation was added in an amount corresponding to 1 mg of protein. The incubation was carried out in a final volume of 1 ml. The samples were pre-incubated at 34° C. for 20 minutes. The calcium uptake was begun by using a ^45 Cacl2 solution of 75 nCi activity. Potassium chloride used for investigating the potassium-induced ^45 Ca uptake was employed in 60 mM concentration whereas sodium chloride was added in the same concentration to the control samples. The incubation lasted 20 seconds. The reaction was stopped by 5 ml of a stopping solution containing 120 mM of sodium chloride, 5 mM of potassium chloride, 5 mM of EGTA and 20 mM of TRIS at pH 7.4. The samples were filtered through a Whatman GF/C filter paper and twice washed with 5 ml of a washing solution each, containing 132 mM of sodium chloride, 5 mM of potassium chloride, 1.3 mM of magnesium chloride, 1.2 mM of calcium chloride and 20 mM of IRIS at pH 7.4. (Abbreviations used above: TRIS means tris(hydroxymethyl)aminomethane; EGTA means ethylene glycol bis(β-aminoethyl) ether-N,N,N',N'-tetraacetic acid).
The filter papers were put into glass cuvets, 10 ml of a scintillation liquid each were added, then the radioactivity of the samples was measured in an 1219 Rackbeta (LKB Wallace) liquid scintillation spectrophotometer.
The IC50 values obtained by examination of the concentration/effect correlations are shown in Table I. IC50 value means the molar concentration of the test compounds which causes 50% inhibition of the stimulated ^45 Ca uptake.

[2] = system: Male Hannover-Wistar rats; experiment: Potassium cyanide test: protective effect against histotoxic hypoxia; assay type: in vivo, rat (Hannover-Wistar); conditions: Rattus norvegicus, po, read-out: ED50 p.o. (dose protecting half of the treated animals from the hypoxia)
CFLP mice = experiment: Antihypoxic effect: asphyxial action in closed glass cylinder (method of Caillard et al.), survival time; assay type: in vivo, mouse (CFLP); conditions: 50 mg/kg oral, 60 minutes before test; n = 10; protected = surviving longer by 30% than average survival time of control group (23.5 ± 2.51 sec)
Method: The antiphypoxic effect was studied by using two methods. According to the method of C. Caillard et al. [Life Sci. 16, 1607 (1975)] the asphyxial action was determined after starvation for 16 hours on CFLP mice of both sexes weighting 24 to 26 g. Each animal was placed in a separate well-closed glass cylinder. The interval passing from closing the cylinder until the cessation of the last visible respiratory movement was registered as survival time. Animals, surviving longer by 30% than the average survival time of the control group, were considered to be protected. The test substances were administered in an oral dose of 50 mg/kg by 60 minutes before starting the examination.

SMILES	pIC50 [1]	ED50 [2]	Protected animals (CFLP mice)
CCCCN1C(=O)OC2(CCN(CCCC(c3ccc(F)cc3)c3ccc(F)cc3)CC2)C1(C)O (stereo not drawn) [Compound 5, 1-Oxa-2-oxo-3-butyl-4-hydroxy-4-methyl-8-[4,4-bis(4-fluorophenyl)butyl]-3,8-diazaspiro[4,5]decane hydrochloride]	5.21	–	–
C=C1N(C(C)(C)C)C(=O)OC12CCN(CCCC(c1ccc(F)cc1)c1ccc(F)cc1)CC2 [Compound 2, 1-Oxa-2-oxo-3-tert-butyl-4-methylene-8-[4,4-bis(4-fluorophenyl)butyl]-3,8-diazaspiro[4,5]decane]	5.23	39.9 mg/kg	–
C=C1N(c2ccccc2)C(=O)OC12CCN(CCCC(c1ccc(F)cc1)c1ccc(F)cc1)CC2 [Compound 3, 1-Oxa-2-oxo-3-phenyl-4-methylene-8-[4,4-bis(4-fluorophenyl)butyl]-3,8-diazaspiro[4,5]decane]	5.68	–	–
CC1(O)N(C2CCCCC2)C(=O)OC12CCN(CCc1ccc(F)cc1)CC2 (stereo not drawn) [Compound 8, 1-Oxa-2-oxo-3-cyclohexyl-4-hydroxy-4-methyl-8-[2-(4-fluorophenyl)ethyl]-3,8-diazaspiro[4,5]decane]	–	–	60%
CN1C(=O)OC2(CCN(CCc3ccc(F)cc3)CC2)C1(C)O (stereo not drawn) [Compound 6, 1-Oxa-2-oxo-3,4-dimethyl-4-hydroxy-8-[2-(4-fluorophenyl)ethyl]-3,8-diazaspiro[4,5]decane]	–	–	60%
C=C1N(CCCC)C(=O)OC12CCN(CCCC(c1ccc(F)cc1)c1ccc(F)cc1)CC2 [Compound 1, 1-Oxa-2-oxo-3-butyl-4-methylene-8-[4,4-bis(4-fluorophenyl)butyl]-3,8-diazaspiro[4,5]decane]	5.24	40.9 mg/kg	–
CCCN1C(=O)OC2(CCN(CCc3ccc(F)cc3)CC2)C1(C)O (stereo not drawn) [Compound 7, 1-Oxa-2-oxo-3-propyl-4-hydroxy-4-methyl-8-[2-(4-fluorophenyl)ethyl]-3,8-diazaspiro[4,5]decane]	–	–	40%
C=C1N(C2CCCCC2)C(=O)OC12CCN(CCCC(c1ccc(F)cc1)c1ccc(F)cc1)CC2 [Compound 4, 1-Oxa-2-oxo-3-cyclohexyl-4-methylene-8-[4,4-bis(4-fluorophenyl)butyl]-3,8-diazaspiro[4,5]decane]	5.28	37.9 mg/kg	–
CCN1C(=O)OC2(CCN(CCc3ccc(F)cc3)CC2)C1(C)O (stereo not drawn) [Compound 9, 1-Oxa-2-oxo-3-ethyl-4-hydroxy-4-methyl-8-[2-(4-fluorophenyl)ethyl]-3,8-diazaspiro[4,5]decane]	–	–	60%
